Measurements taken from US12479794B2, “Acetophenone oxime compound and application thereof” (Medshine Discovery Inc., priority 2020, dated 2025).
Marks after values point to notes of the source that are not given here.

Columns and labels:
[1] = Pharmacokinetic evaluation in SD rats (iv and oral); format: in vivo, Sprague Dawley rats; settings: 1 mg/kg
Procedure: Assay Example 2: Pharmacokinetic Evaluation of Compounds in Rats
Object of the assay: To evaluate the in vivo pharmacokinetics of the compounds in SD rats
Sprague Dawley rats (male, 200-300 g, 7-9 weeks old, Shanghai SLAC)
The pharmacokinetic characteristics of the compounds in rodents after intravenous injection and oral administration were assayed according to the standard protocol. In the assay, the candidate compounds were formulated into clear solutions and administered to rats by single intravenous injection and oral administration. The vehicle for intravenous injection and oral administration was DMSO and 10% hydroxypropyl β-cyclodextrin in water (DMSO:10% hydroxypropyl β-cyclodextrin in water=5:95). Whole blood samples were collected within 48 hours, and centrifuged at 3000 g for 15 minutes. The supernatant was separated to give plasma samples. 4 times the volume of acetonitrile solution containing internal standard was added to precipitate protein. The resulting mixture was centrifuged and the supernatant was taken out. An equal volume of water was added and the mixture was centrifuged. The supernatant was taken out, and injected as a sample to quantitatively analyze the plasma drug concentration by LC-MS/MS analysis method. The pharmacokinetic parameters, such as peak concentration, time to peak, clearance rate, half-life, area under drug-time curve, bioavailability, etc., were calculated.

[2] = target: T1, S1P2 (Homo sapiens, UniProt O95136); assay: In vitro agonistic activity on S1P2, PathHunter cell line; format: cell-based; settings: PathHunter cells
T1 construct: expressed in transfected cells
Procedure: (§1) Assay Example 5: In Vitro Evaluation of the Agonistic Activity of the Compound of the Present Disclosure on S1P2, S1P3 and S1P4
(§2) Object of the assay: To detect the agonistic activity of the compound on S1P2, S1P3, and S1P4
(§3) • 1. PathHunter cell line was expanded from freezer according to standard procedures. • 2. Cells were seeded into a white 384-well microplate in a total volume of 20 μL and incubated at 37° C. for an appropriate time prior to testing. II. Agonist Assay • 1. For the agonist assay, cells were incubated with a sample to induce a response. • 2. Stock solution was stored in a buffer at a concentration of 5 times the concentration to be tested. • 3. 5 μl of the stock solution sample at a concentration of 5 times the concentration to be tested was added to the cells and incubated at 37° C. or room temperature for 90-180 min with a vehicle concentration of 1%. III. Signal Detection • 1. […] Chemiluminescent Signal detection was performed using a PerkinElmer Envision™ instrument, and the microplate was read after signal generation. […] The activity of the compound was analyzed using the CBIS data analysis suite (ChemInnovation, CA). • 2. For the agonist mode assay, the percent activity was calculated using the following formula: % Activity=100%×(Mean RLU of the Assay Sample−Mean RLU of the Blank Control)/(Mean MAX Control Ligand−Mean RLU of the Blank Control).

[3] = target: T2, S1P3 (Homo sapiens, UniProt Q99500); assay: In vitro agonistic activity on S1P3, PathHunter cell line; format: cell-based; settings: PathHunter cells
T2 construct: expressed in transfected cells
Procedure: as §1, §2, §3

[4] = target: T3, S1P4 (Homo sapiens, UniProt O95977); assay: In vitro agonistic activity on S1P4, PathHunter cell line; format: cell-based; settings: PathHunter cells
T3 construct: expressed in transfected cells
T3 sequence (O95977 1-384): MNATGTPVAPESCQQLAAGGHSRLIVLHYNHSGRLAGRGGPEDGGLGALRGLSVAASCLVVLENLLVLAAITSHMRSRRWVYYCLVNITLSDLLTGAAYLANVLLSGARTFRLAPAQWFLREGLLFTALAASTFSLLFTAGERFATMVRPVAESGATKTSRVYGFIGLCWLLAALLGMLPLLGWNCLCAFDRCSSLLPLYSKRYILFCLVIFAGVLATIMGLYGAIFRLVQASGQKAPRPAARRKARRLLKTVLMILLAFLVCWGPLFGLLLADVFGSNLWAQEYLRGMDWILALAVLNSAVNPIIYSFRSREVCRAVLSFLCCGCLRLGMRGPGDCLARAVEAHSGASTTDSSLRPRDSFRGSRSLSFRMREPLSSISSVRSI
Procedure: as §1, §2, §3

T2 sequence (Q99500 whole entry): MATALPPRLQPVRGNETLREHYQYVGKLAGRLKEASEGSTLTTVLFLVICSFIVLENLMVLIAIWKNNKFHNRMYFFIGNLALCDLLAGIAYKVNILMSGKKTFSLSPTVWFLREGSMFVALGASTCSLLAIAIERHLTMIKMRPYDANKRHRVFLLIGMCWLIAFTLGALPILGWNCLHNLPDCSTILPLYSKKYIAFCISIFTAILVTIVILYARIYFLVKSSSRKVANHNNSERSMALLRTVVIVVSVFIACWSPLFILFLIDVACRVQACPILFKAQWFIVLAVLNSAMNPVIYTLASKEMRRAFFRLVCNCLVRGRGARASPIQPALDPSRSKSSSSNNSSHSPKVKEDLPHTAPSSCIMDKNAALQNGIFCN
T1 sequence (O95136 whole entry): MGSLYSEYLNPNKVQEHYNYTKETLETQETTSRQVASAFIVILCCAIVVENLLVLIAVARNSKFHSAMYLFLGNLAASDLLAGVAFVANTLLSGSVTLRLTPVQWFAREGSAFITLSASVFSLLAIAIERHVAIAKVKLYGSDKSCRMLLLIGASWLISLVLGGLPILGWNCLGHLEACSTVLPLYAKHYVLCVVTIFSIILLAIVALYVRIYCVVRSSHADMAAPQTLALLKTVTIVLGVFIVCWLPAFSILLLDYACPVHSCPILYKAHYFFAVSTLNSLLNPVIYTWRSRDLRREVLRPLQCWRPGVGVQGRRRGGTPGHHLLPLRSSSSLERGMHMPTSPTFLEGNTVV

Half life T1/2 (PO) ([1]; iv 1.0 mg/kg only (head prints PO)): 8.3 h
Area under drug-time curve AUC0-last iv ([1]; iv 1.0 mg/kg): 7483* nM · hr
Clearance rate CL ([1]; iv 1.0 mg/kg): 3.97 mL/min/kg
Distribution in tissue Vdss ([1]; iv 1.0 mg/kg): 2.7 L/kg
EC50 [2]: > 300 nM
EC50 [3]: > 300 nM
EC50 [4]: > 300 nM
SMILES: CC(=NOCc1ccc(OC(C)C)c(C(F)(F)F)c1)c1ccc2c(c1)CCC2N1CC(C(=O)O)C1 (single isomer, unassigned) [Compound 32B]
